From patent US20090105172A1, “Stabilized Aptamers to PSMA and Their Use as Prostate Cancer Therapeutics” (priority 2005, published 2009)

Biological target: PSMA NAALADase activity (Homo sapiens, UniProt Q04609)
Assay: NAALADase inhibition assay
Assay type: biochemical
Protocol: These point mutant constructs were assessed for activity in terms of inhibition of PSMA NAALADase activity. The NAALADase assay was performed in 96 well format. PSMA aptamers were serially diluted in 1× reaction buffer (40 mM Tris-HCl, pH 7.4, 0.1 mM ZnSO4, 0.1 mg/in L BSA) in a standard 96 well plate to be tested at a final concentration range from 30 pM to 1 μM. The enzyme was prepared by diluting 30 μL of 100 nM PSMA into 8 mL of reaction buffer, and kept cool on ice. The substrate was prepared by adding 19 μl of NAAG [Glutamate-3,4-^3H], 50.8 Ci/mmol, 19.7 μM (Perkin-Elmer, Wellesley, Mass., NET1082) into 2.2 mL of reaction buffer.
Following preparation of all reagents, 4 μl of each serially diluted aptamer was added to a separate 96 well plate (the reaction plate). 76 μl of diluted enzyme was added to the corresponding wells containing aptamer. 80 μl of reaction buffer was added to one column of wells to serve as a background control. The diluted substrate and reaction plate were then moved to a room at 37° C. and allowed to equilibrate for 10 minutes. After temperature equilibration, 20 μl of the prepared substrate was added to each well using a 12 channel pipet for a final volume of 100 μl/well, and a final concentration of […] enzyme and 30 nM substrate per well. A column of wells containing enzyme and substrate only was used as a high control. The aptamer/enzyme/substrate reaction was incubated at 37° C. for 15 minutes, and stopped by the addition of 100 μl of quench buffer (100 mM sodium phosphate, pH 7.4, 2 mM EDTA).
To separate the cleavage products, […] and Glutamate, from the substrate, an AG 1-X8, 200-400 mesh, formate resin (BioRad, Hercules, Calif., # 140-1454) was used. The resin was prepared by forming a 1:1 slurry in H2O, and adding 140 μl per 96 well using a Multiscreen filter plate (Multiscreen, 1.2 μm filter plates (Millipore, Billerica, Mass., # MABVN1250)). […] The plate was sealed and read using a Packard Topcount Microplate Scintillation Counter. […]

Chain of PSMA NAALADase activity (Q04609 with tags, fused parts or gaps limits assumed): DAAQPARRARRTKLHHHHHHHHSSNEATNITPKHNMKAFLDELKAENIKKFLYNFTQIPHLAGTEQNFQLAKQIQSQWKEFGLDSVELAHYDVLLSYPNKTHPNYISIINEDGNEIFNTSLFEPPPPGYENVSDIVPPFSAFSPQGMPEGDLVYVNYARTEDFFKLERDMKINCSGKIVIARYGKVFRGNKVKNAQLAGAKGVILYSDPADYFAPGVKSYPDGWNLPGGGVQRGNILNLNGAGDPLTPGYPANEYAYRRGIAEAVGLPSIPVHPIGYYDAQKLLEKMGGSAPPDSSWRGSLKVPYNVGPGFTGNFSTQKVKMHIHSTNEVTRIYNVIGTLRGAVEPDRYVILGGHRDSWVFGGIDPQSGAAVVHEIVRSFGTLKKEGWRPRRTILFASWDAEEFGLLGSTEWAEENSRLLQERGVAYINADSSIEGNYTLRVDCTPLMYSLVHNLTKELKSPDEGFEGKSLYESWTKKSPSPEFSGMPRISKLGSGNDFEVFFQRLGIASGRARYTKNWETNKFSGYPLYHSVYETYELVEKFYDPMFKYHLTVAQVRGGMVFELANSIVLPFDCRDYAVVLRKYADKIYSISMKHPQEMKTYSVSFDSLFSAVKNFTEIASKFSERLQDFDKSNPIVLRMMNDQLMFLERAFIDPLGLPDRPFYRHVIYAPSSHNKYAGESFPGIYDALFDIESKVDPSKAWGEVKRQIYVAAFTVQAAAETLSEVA

For “GGAGGAfCfCGAAAAAGAfCfCfUGAfCfUfUfCfUAfUAfCfUAAGfUfCfUAfCGfUfUfCfCfUfCfCA (GGAGGACCGAAAAAGACCUGACUUCUAUACUAAGUCUACGUUCCUCCA; 2'-fluoro at 7, 8, 17, 18, 19, 22, 23, 24, 25, 26, 28, 30, 31, 35, 36, 37, 39, 41, 42, 43, 44, 45, 46, 47, other sugars and backbone not given here) [ARC591, 48-nt minimer of A9]”, the IC50 (read-out: apparent IC50, inhibition of NAALADase activity) was 6.7 nM and the “activity in the NAALADase inhibition assay” value (relative to parent) was “retained full functional activity”.
